Target: human F508del-CFTR (Homo sapiens, UniProt P13569, DEL508-508)
Assay: F508del-CFTR cell surface expression (corrector activity), DiscoveRx ß-galactosidase complementation chemiluminescence assay in recombinant U2OS cell line;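 also: U2OS cells co-expressing ProLink-tagged F508del-CFTR and a membrane-anchored enzyme acceptor, where more surface CFTR restores β-galactosidase activity measured by chemiluminescence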
Conditions: for EC50: EC50, F508del-CFTR cell surface expression
[1] = U2OS cell line, 16h compound incubation, geomean values
[2] = U2OS, in relation to the Emax of the corrector lumacaftor (=100%), U2OS cell line, 16h compound incubation, arithmetic mean values
[3] = U2OS cells, 16h compound incubation, geomean of several measurements
[4] = U2OS, in relation to the Emax of the corrector lumacaftor (=100%), U2OS cells, 16h compound incubation, arithmetic mean
[5] = U2OS cells, 16h compound incubation, geomean values
[6] = U2OS, in relation to Emax of corrector lumacaftor (=100%), arithmetic mean values

Sequence of human F508del-CFTR (P13569 with tags, fused parts or gaps DEL508-508): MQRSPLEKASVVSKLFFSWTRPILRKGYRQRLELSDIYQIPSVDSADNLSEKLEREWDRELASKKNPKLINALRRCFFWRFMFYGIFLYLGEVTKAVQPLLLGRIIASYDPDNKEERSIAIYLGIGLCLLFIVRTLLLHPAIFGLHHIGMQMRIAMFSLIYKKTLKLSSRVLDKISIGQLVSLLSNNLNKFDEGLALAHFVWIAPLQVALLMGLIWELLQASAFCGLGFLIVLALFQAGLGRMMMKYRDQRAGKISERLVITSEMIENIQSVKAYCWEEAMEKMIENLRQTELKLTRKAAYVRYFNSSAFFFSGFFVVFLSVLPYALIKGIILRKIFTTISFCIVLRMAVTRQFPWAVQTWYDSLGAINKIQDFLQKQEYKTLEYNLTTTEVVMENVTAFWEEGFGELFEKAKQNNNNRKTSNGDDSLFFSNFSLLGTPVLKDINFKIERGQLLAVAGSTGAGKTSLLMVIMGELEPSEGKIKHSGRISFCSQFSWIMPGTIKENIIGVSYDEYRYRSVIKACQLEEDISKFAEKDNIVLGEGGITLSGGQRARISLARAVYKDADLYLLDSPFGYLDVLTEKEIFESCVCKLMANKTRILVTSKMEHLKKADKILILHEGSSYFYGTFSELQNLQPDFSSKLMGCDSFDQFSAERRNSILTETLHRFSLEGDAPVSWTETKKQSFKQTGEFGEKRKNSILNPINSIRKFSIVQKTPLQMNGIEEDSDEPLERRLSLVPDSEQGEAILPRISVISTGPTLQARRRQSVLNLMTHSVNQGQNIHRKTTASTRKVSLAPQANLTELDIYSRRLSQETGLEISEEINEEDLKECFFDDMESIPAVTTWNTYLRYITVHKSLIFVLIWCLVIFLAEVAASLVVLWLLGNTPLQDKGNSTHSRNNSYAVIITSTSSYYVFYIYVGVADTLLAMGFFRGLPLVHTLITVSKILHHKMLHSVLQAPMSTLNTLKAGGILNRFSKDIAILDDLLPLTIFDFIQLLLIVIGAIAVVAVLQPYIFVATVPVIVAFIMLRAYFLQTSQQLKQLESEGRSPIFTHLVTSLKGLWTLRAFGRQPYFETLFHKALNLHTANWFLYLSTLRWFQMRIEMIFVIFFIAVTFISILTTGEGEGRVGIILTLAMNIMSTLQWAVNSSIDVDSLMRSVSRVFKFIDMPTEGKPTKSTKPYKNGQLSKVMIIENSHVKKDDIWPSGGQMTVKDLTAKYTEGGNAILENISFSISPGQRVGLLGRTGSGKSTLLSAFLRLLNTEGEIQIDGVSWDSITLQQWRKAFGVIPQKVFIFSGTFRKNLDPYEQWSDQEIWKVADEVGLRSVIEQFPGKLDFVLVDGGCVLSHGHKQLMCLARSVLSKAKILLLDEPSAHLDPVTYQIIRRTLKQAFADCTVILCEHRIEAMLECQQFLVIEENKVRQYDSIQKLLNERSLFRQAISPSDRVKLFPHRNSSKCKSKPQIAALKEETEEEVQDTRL
Procedure: The method measures the effect of over-night compound incubation on F508del-CFTR cell surface expression in a recombinant U2OS cell line (DiscoveRx, #93-0987C3). This cell line is engineered to co-express (i) human F508del-CFTR tagged with a Prolink (PK=short ß-galactosidase fragment) and (ii) the remainder of the ß-galactosidase enzyme (Enzyme Acceptor; EA) localized to the plasma membrane. Incubation with compounds that increase PK-tagged F508del-CFTR at the plasma membrane will lead to complementation of the EA fragment to form a functional ß-galactosidase enzyme which is quantified by a chemiluminescence reaction.
The cells are incubated for 5h in the incubator before the addition of 5 μl/well of compound dilution series (5× working stocks in full medium). […] The cells are co-incubated with the compounds for 16h in the incubator at 37° C., 5% CO2. The next day, the cell plates are incubated for 2h at RT in the dark. […] Concentration-response curves are generated using compound-intrinsic maximal efficacy as upper plateau, and from these CRCs compound-intrinsic EC50 values are determined.
The calculated EC50 values may fluctuate depending on the daily assay performance. […] EC50 values from several measurements are given as geomean values. The calculated Emax values may fluctuate depending on the daily assay performance. […] Emax values from several measurements are given as arithmetic mean values.

SMILES	EC50 [1] [nM]	Emax [2] [%]	other results
COc1nccc2c1C(=O)N[C@H](C(=O)NCCc1cc(C(F)(F)F)no1)CC(=O)N(C)[C@@H](CC(C)C)C(=O)N1CCCC[C@@H]1C(=O)N[C@H](Cc1ccccc1)CO2 [Example 177, (7S,11S,17aR,20R)-20-benzyl-11-isobutyl-4-methoxy-10-methyl-5,9,12,18-tetraoxo-N-(2-(3-(trifluoromethyl)isoxazol-5-yl)ethyl)-5,6,7,8,9,10,11,12,15,16,17,17a,18,19,20,21-hexadecahydro-14H-dipyrido[2,1-f:3′,4′-p][1]oxa[4,7,10,14]tetraazacycloheptadecine-7-carboxamide]	647	248	
Cc1cc2c(c3cccnc13)C(=O)N[C@H](C(=O)NCCc1nc(C3CC3)no1)CC(=O)N(C)[C@@H](CC(C)C)C(=O)N(C)[C@H](Cc1nc(C(F)(F)F)no1)C(=O)N[C@H](Cc1ccccc1)CO2 [Example 936, (3S,7S,10R,13R)-13-benzyl-N-(2-(3-cyclopropyl-1,2,4-oxadiazol-5-yl)ethyl)-7-isobutyl-6,9,17-trimethyl-1,5,8,11-tetraoxo-10-((3-(trifluoromethyl)-1,2,4-oxadiazol-5-yl)methyl)-1,2,3,4,5,6,7,8,9,10,11,12,13,14-tetradecahydro-[1]oxa[4,7,10,14]tetraazacycloheptadecino[16,17-f]quinoline-3-carboxamide]			EC50 [3]: 26 nM; Emax [4]: 469%
CC(C)C[C@H]1C(=O)N2CCOC[C@@H]2C(=O)N[C@H](Cc2ccccc2)COc2cnc3ccccc3c2C(=O)N[C@H](C(=O)NCCc2ccc(F)cc2)CC(=O)N1C [Example 67, (9S,13S,19aR,22R)-22-benzyl-N-(4-fluorophenethyl)-13-isobutyl-12-methyl-7,11,14,20-tetraoxo-7,8,9,10,11,12,13,14,16,17,19,19a,20,21,22,23-hexadecahydro-[1,4]oxazino[3′,4′:6,7][1]oxa[4,7,10,14]tetraazacycloheptadecino[17,16-c]quinoline-9-carboxamide]	615	236	
CC(C)C[C@H]1C(=O)N(C)C2(CC2)C(=O)N[C@H](Cc2ccccc2)COc2ccc3ncc(F)cc3c2C(=O)N[C@H](C(=O)NCCc2noc(C3CC3)n2)CC(=O)N1C [Example 546, (3′S,7′S,13′R)-13′-benzyl-N-(2-(5-cyclopropyl-1,2,4-oxadiazol-3-yl)ethyl)-20′-fluoro-7′-isobutyl-6′,9′-dimethyl-1′,5′,8′,11′-tetraoxo-2′,3′,4′,5′,6′,7′,8′,9′,11′,12′,13′,14′-dodecahydro-1′H-spiro[cyclopropane-1,10′-[1]oxa[4,7,10,14]tetraazacycloheptadecino[16,17-f]quinoline]-3′-carboxamide]			EC50 [5]: 350 nM; Emax [6]: 411%
CC(C)C[C@H]1C(=O)N2CCOC[C@@H]2C(=O)N[C@H](Cc2ccccc2)COc2ccc3ccccc3c2C(=O)N[C@H](C(=O)NCCc2ccc3c(c2)OCCO3)CC(=O)N1C [Example 39, (4aR,7R,18S,22S)-7-benzyl-N-(2-(2,3-dihydrobenzo[b][1,4]dioxin-6-yl)ethyl)-22-isobutyl-21-methyl-5,16,20,23-tetraoxo-1,2,4,4a,5,6,7,8,16,17,18,19,20,21,22,23-hexadecahydronaphtho[1,2-p][1,4]oxazino[3,4-f][1]oxa[4,7,10,14]tetraazacycloheptadecine-18-carboxamide]	415	450	
COc1cccc(CCNC(=O)[C@@H]2CC(=O)N(C)[C@@H](CC(C)C)C(=O)N3CCCC[C@@H]3C(=O)N[C@H](Cc3ccccc3)COc3ccc4oc(C)nc4c3C(=O)N2)c1 [Example 351, (8S,12S,18aR,21R)-21-benzyl-12-isobutyl-N-(3-methoxyphenethyl)-4,11-dimethyl-6,10,13,19-tetraoxo-6,7,8,9,10,11,12,13,16,17,18,18a,19,20,21,22-hexadecahydro-15H-oxazolo[5′,4′:5,6]benzo[1,2-p]pyrido[2,1-f][1]oxa[4,7,10,14]tetraazacycloheptadecine-8-carboxamide]	756	127	
COC(=O)N1CCN2C(=O)[C@H](CC(C)C)N(C)C(=O)C[C@@H](C(=O)NCCc3cccc(OC)c3)NC(=O)c3c(ccc4ccccc34)OC[C@@H](Cc3ccccc3)NC(=O)[C@H]2C1 [Example 754, Methyl (4aR,7R,18S,22S)-7-benzyl-22-isobutyl-18-((3-methoxyphenethyl)carbamoyl)-21-methyl-5,16,20,23-tetraoxo-1,2,4,4a,5,6,7,8,16,17,18,19,20,21,22,23-hexadecahydro-3H-naphtho[1,2-p]pyrazino[2,1-f][1]oxa[4,7,10,14]tetraazacycloheptadecine-3-carboxylate]			EC50 [5]: 219 nM; Emax [6]: 279%
[2H]C([2H])([2H])Oc1cccc(CCNC(=O)[C@@H]2CC(=O)N(C)[C@@H](CC(C)C)C(=O)N(CCC3CCCCC3)CC(=O)N[C@H](Cc3ccccc3)COc3ccc4nc(C)oc4c3C(=O)N2)c1 [Example 381, (8R,14S,18S)-8-benzyl-12-(2-cyclohexylethyl)-14-isobutyl-N-(3-(methoxy-d3)phenethyl)-2,15-dimethyl-10,13,16,20-tetraoxo-7,8,9,10,11,12,13,14,15,16,17,18,19,20-tetradecahydrooxazolo[4′,5′:5,6]benzo[1,2-p][1]oxa[4,7,10,14]tetraazacycloheptadecine-18-carboxamide]	68	322	
COc1cccc(CCNC(=O)[C@@H]2CC(=O)N(C)[C@@H](CC(C)C)C(=O)N(CCC3CCCCC3)CC(=O)N[C@H](Cc3ccccc3)COc3cc(C)ncc3C(=O)N2)c1 [Example 271, (3R,9S,13S)-3-benzyl-7-(2-cyclohexylethyl)-9-isobutyl-N-(3-methoxyphenethyl)-10,18-dimethyl-5,8,11,15-tetraoxo-2,3,4,5,6,7,8,9,10,11,12,13,14,15-tetradecahydropyrido[3,4-p][1]oxa[4,7,10,14]tetraazacycloheptadecine-13-carboxamide]	266	185	
COCCN1CCN2C(=O)[C@H](CC(C)C)N(C)C(=O)C[C@@H](C(=O)NCCc3cccc(OC(F)F)c3)NC(=O)c3c(cnc4ccccc34)OC[C@@H](Cc3ccccc3)NC(=O)[C@H]2C1 [Example 414, (9S,13S,19aR,22R)-22-benzyl-N-(3-(difluoromethoxy)phenethyl)-13-isobutyl-18-(2-methoxyethyl)-12-methyl-7,11,14,20-tetraoxo-7,8,9,10,11,12,13,14,17,18,19,19a,20,21,22,23-hexadecahydro-16H-pyrazino[2′,1′:6,7][1]oxa[4,7,10,14]tetraazacycloheptadecino[17,16-c]quinoline-9-carboxamide]			EC50 [5]: 372 nM; Emax [6]: 251%
COc1cc(CCNC(=O)[C@@H]2CC(=O)N(C)[C@@H](CC(C)C)C(=O)N(C)[C@H](Cc3nc(C(F)(F)F)no3)C(=O)N[C@H](Cc3ccccc3)COc3ccnc(OC)c3C(=O)N2)on1 [Example 948, (3R,6R,9S,13S)-3-benzyl-9-isobutyl-16-methoxy-N-(2-(3-methoxyisoxazol-5-yl)ethyl)-7,10-dimethyl-5,8,11,15-tetraoxo-6-((3-(trifluoromethyl)-1,2,4-oxadiazol-5-yl)methyl)-2,3,4,5,6,7,8,9,10,11,12,13,14,15-tetradecahydropyrido[3,4-p][1]oxa[4,7,10,14]tetraazacycloheptadecine-13-carboxamide]			EC50 [3]: 61 nM; Emax [4]: 501%
CC(C)C[C@H]1C(=O)N2CCCC[C@@H]2C(=O)N[C@H](Cc2ccccc2)COc2cnc3ccccc3c2C(=O)N[C@H](C(=O)NCCc2cccc(F)c2F)CC(=O)N1C [Example 97, (9S,13S,19aR,22R)-22-benzyl-N-(2,3-difluorophenethyl)-13-isobutyl-12-methyl-7,11,14,20-tetraoxo-7,8,9,10,11,12,13,14,17,18,19,19a,20,21,22,23-hexadecahydro-16H-pyrido[2′,1′:6,7][1]oxa[4,7,10,14]tetraazacycloheptadecino[17,16-c]quinoline-9-carboxamide]	146	285	
COc1cc2c(cn1)OC[C@@H](Cc1ccccc1)NC(=O)[C@H]1CCCCN1C(=O)[C@H](CC(C)C)N(C)C(=O)C[C@@H](C(=O)NCCc1cc(C3CC3)on1)NC2=O [Example 518, (7S,11S,17aR,20R)-20-benzyl-N-(2-(5-cyclopropylisoxazol-3-yl)ethyl)-11-isobutyl-3-methoxy-10-methyl-5,9,12,18-tetraoxo-5,6,7,8,9,10,11,12,15,16,17,17a,18,19,20,21-hexadecahydro-14H-dipyrido[2,1-f:2′,3′-p][1]oxa[4,7,10,14]tetraazacycloheptadecine-7-carboxamide]			EC50 [5]: 655 nM; Emax (in relation to Emax of corrector lumacaftor (=100%), arithmetic mean values): 189%
Cc1cc2c3c(ccc2cn1)OC[C@@H](Cc1ccccc1)NC(=O)[C@@H](CC(F)F)N(C)C(=O)[C@H](CC(C)C)N(C)C(=O)C[C@@H](C(=O)NCCn1nnc(C2CC2)n1)NC3=O [Example 933, (3S,7S,10R,13R)-13-benzyl-N-(2-(5-cyclopropyl-2H-tetrazol-2-yl)ethyl)-10-(2,2-difluoroethyl)-7-isobutyl-6,9,20-trimethyl-1,5,8,11-tetraoxo-1,2,3,4,5,6,7,8,9,10,11,12,13,14-tetradecahydro-[1]oxa[4,7,10,14]tetraazacycloheptadecino[16,17-f]isoquinoline-3-carboxamide]			EC50 [3]: 399 nM; Emax [4]: 485%

— patent publication US20240208992A1, “MACROCYCLES AS CFTR MODULATORS” (Idorsia Pharmaceuticals Ltd, priority 2021, published 2024)
